Measurements: patent US20080171780A1, “Process for Crystallization of Ramipril and Preparation of a Hydrated Form Thereof” (LUPIN LIMITED, priority 2004, published 2008)
Blank lines part the entries; values can stand above or below the compound they belong to.

How the values were obtained:
Type in all cases: physicochemical
[1] = In vitro drug release (dissolution) profile, USP apparatus 1, 0.1 N HCl; settings: 50 RPM, solid composition with pregelatinized starch
Method: Optically pure Ramipril(I) obtained from example 1 is formulated as a solid pharmaceutical composition by conventional way of direct mixing process with excipients such as pregelatinized starch.
Ramipril(I) monohydrate obtained from example 5 is formulated as a solid pharmaceutical composition by conventional way of direct mixing process with excipients such as pregelatinized starch.
The in vitro drug release profile was carried out using USP apparatus 1,500 ml of 0.1 N HCl at 50 RPM. Following table provides a comparison of dissolution profile of Ramipril(I) crystallized from diethoxymethane as well as the Ramipril(I) monohydrate and prior art method.

[2] = Thermal stability of the hydrate form; settings: converts to anhydrous form on heating above 40° C.
Method: The novel hydrate of Ramipril(I) occurs in crystalline form. It is readily converted to the anhydrous moiety by heating at a temperature in the range from 40° C. to 42° C. under reduced pressure of 2 to 5 mm hg. The novel hydrate form is stable up to a temperature of 25° C. The monohydrate is transformed into anhydrous Ramipril(I), the so-called “anhydrate” on heating above 40° C. with a speed depending on the conditions of dehydration.

[3] = Bulk density (B.D.) of crystalline material
From the text: The bulk density is an economically, commercially, and functionally important property. […] Moreover, when shipping powders over long distances a high bulk density results in reducing the shipping volume. A high bulk density compound also saves packing material and storage capacity.

[4] = Tapped density (T.D.) of crystalline material
[5] = Stability study at 40° C./75% RH, assay by HPLC; settings: crystallized by Diethoxymethane
[6] = Present invention, solvent 2,2-Dimethoxy-propane
[7] = Present invention, solvent Diethoxymethane
[8] = Present invention, solvent Methyl formate
[9] = Present invention, solvent Nitromethane
[10] = Prior art method, solvent Ethanol-diethyl ether
[11] = Prior art method, solvent Ethanol-diisopropyl ether

SMILES: CCOC(=O)[C@H](CCc1ccccc1)N[C@@H](C)C(=O)N1[C@H](C(=O)O)C[C@@H]2CCC[C@@H]21 [Crystallised from Diethoxymethane, (2S,3aS,6aS)-1-[(S)-2-[[(S)-1-(ethoxycarbonyl)-3-phenylpropyl]-amino]propanoyl]octahydrocyclopenta[b]pyrrole-2-carboxylic acid]
- % Drug release of the Label claim ([1]; 5 Min.): 48.4%
- % Drug release of the Label claim ([1]; 10 Min.): 93.8%

SMILES: CCOC(=O)[C@H](CCc1ccccc1)N[C@@H](C)C(=O)N1[C@H](C(=O)O)C[C@@H]2CCC[C@@H]21.O [Monohydrate Ramipril(I)]
- % Drug release of the Label claim ([1]; 5 Min.): 40.8%
- % Drug release of the Label claim ([1]; 10 Min.): 87%
- temperature up to which the form is stable [2]: ≤ 25 °C

SMILES: CCOC(=O)[C@H](CCc1ccccc1)N[C@@H](C)C(=O)N1[C@H](C(=O)O)C[C@@H]2CCC[C@@H]21 [Prior art Method]
- % Drug release of the Label claim ([1]; 5 Min.): 18.8%
- % Drug release of the Label claim ([1]; 10 Min.): 75%

Second part, the compound after the results:

- B.D. [3, 6]: 0.1 to 0.13 g/mL
- B.D. [3, 7]: 0.22 to 0.24 g/mL
- B.D. [3, 8]: 0.11 to 0.13 g/mL
- B.D. [3, 9]: 0.12 to 0.14 g/mL
- B.D. [3, 10]: 0.09 to 0.12 g/mL
- B.D. [3, 11]: 0.08 to 0.1 g/mL
- T.D. [4, 6]: 0.14 to 0.18 g/mL
- T.D. [4, 7]: 0.32 to 0.37 g/mL
- T.D. [4, 8]: 0.15 to 0.17 g/mL
- T.D. [4, 9]: 0.15 to 0.17 g/mL
- T.D. [4, 10]: 0.15 to 0.17 g/mL
- T.D. [4, 11]: 0.13 to 0.15 g/mL
- Assay by HPLC(%) ([5]; 40° C. ± 2° C./75% ± 5% RH, 1 Month): 99.5%
- Assay by HPLC(%) ([5]; 40° C. ± 2° C./75% ± 5% RH, 2 Month): 99.2%
- Assay by HPLC(%) ([5]; 40° C. ± 2° C./75% ± 5% RH, 3 Month): 99.12%
- Assay by HPLC(%) ([5]; Initial): 99.68%
SMILES: CCOC(=O)[C@H](CCc1ccccc1)N[C@@H](C)C(=O)N1[C@H](C(=O)O)C[C@@H]2CCC[C@@H]21 [Ramipril(I), (2S,3aS,6aS)-1-[(S)-2-[[(S)-1-(ethoxycarbonyl)-3-phenylpropyl]-amino]propanoyl]octahydrocyclopenta[b]pyrrole-2-carboxylic acid]

- bulk density [3]: 0.3 to 0.35 g/mL
SMILES: CCOC(=O)[C@H](CCc1ccccc1)N[C@@H](C)C(=O)N1[C@H](C(=O)O)C[C@@H]2CCC[C@@H]21 [anhydrous Ramipril(I)]
